# According to patent US20060069132A1, “Azolecarboxamide herbicides” (priority 2004, published 2006):
# Tests used:
# common ragweed = assay: Test C pre-/postemergence herbicide test; type: in vivo, Ambrosia elatior; set-up: key to Plant response rating, Ragweed: 0 = no effect, 100 = complete control; conditions: for Ragweed plant response rating: Preemergence
# Outline: (§1)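 Emerged plants at the 1- to 4-leaf stage (2–18 cm), or freshly planted seeds, received test chemicals in a non-phytotoxic solvent mixture with surfactant. Response was visually scored against controls after 12 to 14 days in the greenhouse, on a 0 (no effect) to 100 (complete control) scale.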
# lambsquarters = assay: Test C pre-/postemergence herbicide test; type: in vivo, Chenopodium album; conditions: for Lambsquarters plant response rating: Preemergence
# Outline: as §1
# cocklebur = assay: Test C pre-/postemergence herbicide test; type: in vivo, Xanthium strumarium; conditions: for Cocklebur plant response rating: Preemergence, 500 g ai/ha
# Outline: as §1
# morningglory = assay: Test C pre-/postemergence herbicide test; type: in vivo, Ipomoea coccinea; set-up: key to Plant response rating, Morningglory: 0 = no effect, 100 = complete control; conditions: for Morningglory plant response rating: Preemergence
# Outline: as §1
# barnyardgrass = assay: Test A pre-/postemergence herbicide test; type: in vivo, Echinochloa crus-galli
# Outline: (§2)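 Both application timings were run together: directed soil spray over freshly planted seeds in sandy loam, and runoff spray onto 2–10 cm seedlings. Evaluation after ~10 days in greenhouse used a 0–100 visual scale versus untreated controls.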
# velvetleaf = assay: Test A pre-/postemergence herbicide test; type: in vivo, Abutilon theophrasti
# Outline: as §2
# kochia = assay: Test C pre-/postemergence herbicide test; type: in vivo, Kochia scoparia; conditions: for Kochia plant response rating: Preemergence
# Outline: as §1
# [1] = 62 g ai/ha, preemergence, scale 0 to 100
# [2] = 125 g ai/ha, scale 0 (no effect) to 100 (complete control), visual, 12 to 14 days, preemergence
# [3] = 500 g ai/ha, scale 0 to 100, 0 no effect, 100 complete control
# [4] = 250 g ai/ha, scale 0 to 100 (0 no effect, 100 complete control), visual, 12 to 14 days, preemergence
# [5] = scale 0 to 100, 0 no effect, 100 complete control
# [6] = Postemergence, 500 g ai/ha, 0 to 100 scale, 0 no effect, 100 complete control
# [7] = Postemergence, 2000 g ai/ha, 0 to 100 scale, 0 no effect, 100 complete control
# [8] = Preemergence, 500 g ai/ha, visual rating, 0 to 100 scale (0 no effect, 100 complete control)
# [9] = Preemergence, 2000 g ai/ha, visual rating, 0 to 100 scale (0 no effect, 100 complete control)
# [10] = preemergence, 500 g ai/ha, visual injury, 0 to 100 scale (0 no effect, 100 complete control)
# [11] = 31 g ai/ha, preemergence, scale 0 to 100
# [12] = postemergence, 125 g ai/ha, scale 0 to 100
# [13] = postemergence, 62 g ai/ha, scale 0 to 100
# [14] = Postemergence, 125 g ai/ha, scale 0 to 100, 0 no effect, 100 complete control
# [15] = Preemergence, 2000 g ai/ha, 0 to 100 scale, 0 no effect, 100 complete control
# [16] = Postemergence, 250 g ai/ha, scale 0 to 100, 0 no effect, 100 complete control
# [17] = 250 g ai/ha, scale 0-100, preemergence
# [18] = 500 g ai/ha, scale 0 to 100 (0 no effect, 100 complete control), visual, 12 to 14 days, preemergence
smiles,measurement,setting,value
CCN(CC)C(=O)c1ccnc(NC(=O)c2cc(C(C)(C)C)nn2CC)c1 [Compound 153],"Plant response rating, Ragweed",common ragweed; [1],0
same,"Plant response rating, Ragweed",common ragweed; [2],0
same,Ragweed plant response rating,common ragweed; [3],100
same,"Plant response rating, Lambsquarters",lambsquarters; [1],95
same,"Plant response rating, Lambsquarters",lambsquarters; [2],100
same,Lambsquarters plant response rating,lambsquarters; [3],100
same,"Plant response rating, Cocklebur",cocklebur; [1],0
same,"Plant response rating, Cocklebur",cocklebur; [2],0
same,"Plant response rating, Cocklebur",cocklebur; [4],0
same,Cocklebur plant response rating,cocklebur; [5],0
same,"Plant response rating, Morningglory",morningglory; [1],0
same,"Plant response rating, Morningglory",morningglory; [2],0
same,Morningglory plant response rating,morningglory; [3],15
same,Barnyardgrass plant response rating,barnyardgrass; [6],75
same,"Plant response rating, Barnyardgrass",barnyardgrass; [7],100
same,Barnyardgrass plant response rating,barnyardgrass; [8],80
same,Barnyardgrass plant response rating,barnyardgrass; [9],90
same,Velvetleaf plant response rating,velvetleaf; [6],40
same,"Plant response rating, Velvetleaf",velvetleaf; [7],65
same,Velvetleaf plant response rating,velvetleaf; [9],80
same,Velvetleaf plant response rating,velvetleaf; [10],15
same,"Plant response rating, Kochia",kochia; [1],65
same,"Plant response rating, Kochia",kochia; [2],95
same,Kochia plant response rating,kochia; [3],100
CCNC(=O)c1cccc(NC(=O)c2cc(C(C)(C)C)nn2CCF)c1 [Compound 35],"Plant response rating, Ragweed",common ragweed; [11],0
same,"Plant response rating (0 = no effect, 100 = complete control), Ragweed","common ragweed; 62 g ai/ha, preemergence",10
same,"Plant response rating, Ragweed",common ragweed; [2],80
same,"Plant response rating, Ragweed",common ragweed; [12],50
same,"Plant response rating, Ragweed",common ragweed; [13],50
same,"Plant response rating, Lambsquarters",lambsquarters; [11],0
same,"Plant response rating (0 = no effect, 100 = complete control), Lambsquarters","lambsquarters; 62 g ai/ha, preemergence",90
same,"Plant response rating, Lambsquarters",lambsquarters; [2],100
same,"Plant response rating, Lambsquarters",lambsquarters; [12],90
same,"Plant response rating, Lambsquarters",lambsquarters; [13],90
same,"Plant response rating, Cocklebur",cocklebur; [11],0
same,"Plant response rating (0 = no effect, 100 = complete control), Cocklebur","cocklebur; 62 g ai/ha, preemergence",0
same,"Plant response rating, Cocklebur",cocklebur; [2],20
same,"Plant response rating, Cocklebur",cocklebur; [14],70
same,"Plant response rating, Cocklebur","cocklebur; postemergence, 16 g ai/ha, scale 0 to 100",20
same,"Plant response rating, Cocklebur","cocklebur; postemergence, 31 g ai/ha, scale 0 to 100",20
same,"Plant response rating, Cocklebur",cocklebur; [13],60
same,"Plant response rating, Morningglory",morningglory; [11],0
same,"Plant response rating (0 = no effect, 100 = complete control), Morningglory","morningglory; 62 g ai/ha, preemergence",100
same,"Plant response rating, Morningglory",morningglory; [12],40
same,"Plant response rating, Morningglory",morningglory; [13],20
same,"Plant response rating, Barnyardgrass",barnyardgrass; [6],70
same,"Plant response rating, Barnyardgrass",barnyardgrass; [7],85
same,Barnyardgrass plant response rating,barnyardgrass; [8],70
same,Barnyardgrass plant response rating,barnyardgrass; [15],90
same,"Plant response rating, Velvetleaf",velvetleaf; [6],25
same,"Plant response rating, Velvetleaf",velvetleaf; [7],40
same,Velvetleaf plant response rating,velvetleaf; [8],35
same,Velvetleaf plant response rating,velvetleaf; [15],95
same,"Plant response rating, Kochia",kochia; [11],0
same,"Plant response rating (0 = no effect, 100 = complete control), Kochia","kochia; 62 g ai/ha, preemergence",10
same,"Plant response rating, Kochia",kochia; [2],10
same,"Plant response rating, Kochia",kochia; [14],90
same,"Plant response rating, Kochia",kochia; [13],90
CCn1nc(C(C)(C)C)cc1C(=O)Nc1cccc(C(=O)NC2CC2)c1 [Compound 44],"Plant response rating (0 = no effect, 100 = complete control), Ragweed","common ragweed; 62 g ai/ha, preemergence",0
same,"Plant response rating, Ragweed",common ragweed; [2],30
same,"Plant response rating, Ragweed",common ragweed; [4],70
same,"Plant response rating, Ragweed",common ragweed; [16],90
same,"Plant response rating, Ragweed",common ragweed; [13],50
same,"Plant response rating (0 = no effect, 100 = complete control), Lambsquarters","lambsquarters; 62 g ai/ha, preemergence",90
same,"Plant response rating, Lambsquarters",lambsquarters; [2],100
same,"Plant response rating, Lambsquarters",lambsquarters; [4],100
same,"Plant response rating, Lambsquarters",lambsquarters; [16],90
same,"Plant response rating, Lambsquarters",lambsquarters; [13],90
same,"Plant response rating (0 = no effect, 100 = complete control), Cocklebur","cocklebur; 62 g ai/ha, preemergence",0
same,"Plant response rating, Cocklebur",cocklebur; [4],0
same,"Plant response rating, Cocklebur",cocklebur; [14],70
same,"Plant response rating, Cocklebur",cocklebur; [16],70
same,"Plant response rating, Cocklebur",cocklebur; [13],50
same,"Plant response rating (0 = no effect, 100 = complete control), Morningglory","morningglory; 62 g ai/ha, preemergence",0
same,"Plant response rating, Morningglory",morningglory; [2],0
same,"Plant response rating, Morningglory",morningglory; [4],0
same,"Plant response rating, Morningglory",morningglory; [16],80
same,"Plant response rating, Morningglory",morningglory; [13],50
same,"Plant response rating, Barnyardgrass",barnyardgrass; [6],90
same,"Plant response rating, Barnyardgrass",barnyardgrass; [7],100
same,Barnyardgrass plant response rating,barnyardgrass; [8],75
same,Barnyardgrass plant response rating,barnyardgrass; [15],90
same,"Plant response rating, Velvetleaf",velvetleaf; [7],65
same,Velvetleaf plant response rating,velvetleaf; [8],20
same,Velvetleaf plant response rating,velvetleaf; [15],35
same,"Plant response rating (0 = no effect, 100 = complete control), Kochia","kochia; 62 g ai/ha, preemergence",0
same,"Plant response rating, Kochia",kochia; [2],10
same,"Plant response rating, Kochia",kochia; [4],10
same,"Plant response rating, Kochia",kochia; [14],90
same,"Plant response rating, Kochia",kochia; [16],90
same,"Plant response rating, Kochia",kochia; [13],90
CCn1nc(C(C)(C)C)cc1C(=O)Nc1cccc(C(=O)NCC(C)C)c1 [Compound 61],"Plant response rating (0 = no effect, 100 = complete control), Ragweed","common ragweed; 62 g ai/ha, preemergence",0
same,"Plant response rating, Ragweed",common ragweed; [2],0
same,"Plant response rating, Ragweed",common ragweed; [4],80
same,Ragweed plant response rating,common ragweed; [3],80
same,"Plant response rating (0 = no effect, 100 = complete control), Lambsquarters","lambsquarters; 62 g ai/ha, preemergence",100
same,"Plant response rating, Lambsquarters",lambsquarters; [2],100
same,"Plant response rating, Lambsquarters",lambsquarters; [4],100
same,Lambsquarters plant response rating,lambsquarters; [3],100
same,"Plant response rating (0 = no effect, 100 = complete control), Cocklebur","cocklebur; 62 g ai/ha, preemergence",0
same,"Plant response rating, Cocklebur",cocklebur; [2],0
same,Cocklebur plant response rating,cocklebur; [5],0
same,"Plant response rating (0 = no effect, 100 = complete control), Morningglory","morningglory; 62 g ai/ha, preemergence",0
same,"Plant response rating, Morningglory",morningglory; [2],0
same,"Plant response rating, Morningglory",morningglory; [4],5
same,Morningglory plant response rating,morningglory; [3],100
same,"Plant response rating, Barnyardgrass",barnyardgrass; [6],35
same,"Plant response rating, Barnyardgrass",barnyardgrass; [7],90
same,Barnyardgrass plant response rating,barnyardgrass; [8],40
same,Barnyardgrass plant response rating,barnyardgrass; [15],75
same,"Plant response rating, Velvetleaf",velvetleaf; [7],15
same,Velvetleaf plant response rating,velvetleaf; [8],55
same,Velvetleaf plant response rating,velvetleaf; [9],85
same,"Plant response rating (0 = no effect, 100 = complete control), Kochia","kochia; 62 g ai/ha, preemergence",10
same,"Plant response rating, Kochia",kochia; [2],100
same,"Plant response rating, Kochia",kochia; [4],100
same,Kochia plant response rating,kochia; [3],100
CCN(CC)C(=O)c1cccc(NC(=O)c2cc(C(C)(C)C)nn2C)n1 [Compound 314],"Plant response rating, Ragweed",common ragweed; [1],0
same,"Plant response rating, Ragweed",common ragweed; [17],40
same,"Plant response rating, Ragweed",common ragweed; [18],60
same,"Plant response rating, Lambsquarters",lambsquarters; [1],0
same,"Plant response rating, Lambsquarters",lambsquarters; [2],10
same,"Plant response rating, Lambsquarters",lambsquarters; [17],30
same,"Plant response rating, Lambsquarters",lambsquarters; [18],85
same,"Plant response rating, Cocklebur",cocklebur; [1],0
same,"Plant response rating, Cocklebur",cocklebur; [2],0
same,"Plant response rating, Cocklebur",cocklebur; [17],0
same,Cocklebur plant response rating,cocklebur; [5],20
same,"Plant response rating, Morningglory",morningglory; [1],0
same,"Plant response rating, Morningglory",morningglory; [2],10
same,"Plant response rating, Morningglory",morningglory; [17],30
same,"Plant response rating, Morningglory",morningglory; [18],40
same,Barnyardgrass plant response rating,barnyardgrass; [6],35
same,"Plant response rating, Barnyardgrass",barnyardgrass; [7],75
same,Barnyardgrass plant response rating,barnyardgrass; [9],90
same,Barnyardgrass plant response rating,barnyardgrass; [10],50
same,Velvetleaf plant response rating,velvetleaf; [6],20
same,"Plant response rating, Velvetleaf",velvetleaf; [7],30
same,Velvetleaf plant response rating,velvetleaf; [9],80
same,Velvetleaf plant response rating,velvetleaf; [10],40
same,"Plant response rating, Kochia",kochia; [1],0
same,"Plant response rating, Kochia",kochia; [2],0
same,"Plant response rating, Kochia",kochia; [17],30
same,"Plant response rating, Kochia",kochia; [18],70
CCc1nc(C(C)(C)C)sc1C(=O)Nc1cccc(C(=O)N(CC)CC)c1 [Compound 205],"Plant response rating, Ragweed",common ragweed; [1],0
same,"Plant response rating, Ragweed",common ragweed; [2],20
same,"Plant response rating, Ragweed",common ragweed; [17],50
same,Ragweed plant response rating,common ragweed; [3],100
same,"Plant response rating, Lambsquarters",lambsquarters; [1],85
same,"Plant response rating, Lambsquarters",lambsquarters; [2],90
same,"Plant response rating, Lambsquarters",lambsquarters; [17],90
same,Lambsquarters plant response rating,lambsquarters; [3],100
same,"Plant response rating, Cocklebur",cocklebur; [1],0
same,"Plant response rating, Cocklebur",cocklebur; [2],0
same,"Plant response rating, Cocklebur",cocklebur; [17],0
same,Cocklebur plant response rating,cocklebur; [5],0
same,"Plant response rating, Morningglory",morningglory; [1],0
same,"Plant response rating, Morningglory",morningglory; [2],0
same,"Plant response rating, Morningglory",morningglory; [17],10
same,Morningglory plant response rating,morningglory; [3],50
same,Barnyardgrass plant response rating,barnyardgrass; [6],45
same,"Plant response rating, Barnyardgrass",barnyardgrass; [7],65
same,Barnyardgrass plant response rating,barnyardgrass; [9],90
same,Barnyardgrass plant response rating,barnyardgrass; [10],80
same,Velvetleaf plant response rating,velvetleaf; [6],20
same,"Plant response rating, Velvetleaf",velvetleaf; [7],30
same,Velvetleaf plant response rating,velvetleaf; [9],100
same,Velvetleaf plant response rating,velvetleaf; [10],70
same,"Plant response rating, Kochia",kochia; [1],90
same,"Plant response rating, Kochia",kochia; [2],90
same,"Plant response rating, Kochia",kochia; [17],90
same,Kochia plant response rating,kochia; [3],90
